Test results reported in US9918934B2, “Linker-based lecithin microemulsion delivery vehicles” (priority 2006, dated 2018).

Legend:
dorsal pig ear skin = type: in vitro ADME
Experimental: The model skin was placed in a commercial MATTEK™ Permeation Device (MPD). A test formulation (0.4 mL) was applied in the donor compartment. […] At predetermined time, the receiver solution was withdrawn completely from the receptor compartment and was immediately replaced by fresh buffer solution. Sink conditions were maintained at all times. At 5.5 h, the experiment was terminated. All permeation experiments were conducted in triplicate at room temperature.
Receiver solutions were diluted with methanol and the absorbance at 230 nm were measured.
The cumulative lidocaine amount permeated across the skin was plotted as a function of time (h), and average steady-state flux (J, μg/h/cm2) was calculated by dividing the slope from the linear part of the curve by the area of the exposed skin surface (0.256 cm2).
To measure the concentration of lidocaine in pig ear skin, the tissue was removed from the MATTEK™ permeation device, rinse with PBS solution and blotted with lint-free paper tissue to remove any excess of fluid. The tissue was immersed in 2 mL of methanol for a period of 24 hr. After that time, the concentration of lidocaine was measured using the HPLC method described above. The mass of lidocaine extracted is divided by the volume of the tissue (tissue thickness*cross sectional area) to obtain the equivalent lidocaine concentration in the skin. The skin permeability is calculated by dividing the transdermal flux by the lidocaine skin concentration.
The formulation LO-32 (a Type II lecithin linker microemulsion) was reformulated using lower lecithin concentration. The transdermal flux through pig ear dorsal skin was also evaluated for selected formulations, and following the procedures described above. […] (Where: (a) is lecithin; (b) is sorbitan monooleate; (c) is octanoic acid; (d) is sodium octanoate; (e) is water; (f) is lidocaine; (g) is isopropyl myristate; and (v) is microemulsion volume. Concentrations are expressed on a weight percentage basis (w/w).)

[1] = test system: reconstructed human skin EpiDerm™ EPI-200; type: in vitro ADME
Experimental: Lidocaine permeability was measured in vitro through reconstructed human skin EpiDerm™ EPI-200 and dorsal pig ear skin using selected formulations of examples 1 through 3. The model skin was placed in a commercial MATTEK™ Permeation Device (MPD). A test formulation (0.4 mL) was applied in the donor compartment. The receptor compartment was filled with 5 mL of PBS (0.01M phosphate, 0.137M NaCl, pH 7.4). At predetermined time, the receiver solution was withdrawn completely from the receptor compartment and was immediately replaced by fresh buffer solution. Sink conditions were maintained at all times. At 5.5 h, the experiment was terminated. All permeation experiments were conducted in triplicate at room temperature.
Lidocaine in receiver solutions was assayed by a UV spectrophotometer ([…] PLUS™, Amersham Pharmacia Biotech, U.S.A.). Receiver solutions were diluted with methanol and the absorbance at 230 nm were measured. A linear calibration curve for lidocaine was obtained at 230 nm in a range of 0-100 μg/mL with a linearity of 0.999.
The cumulative lidocaine amount permeated across the skin was plotted as a function of time (h), and average steady-state flux (J, μg/h/cm2) was calculated by dividing the slope from the linear part of the curve by the area of the exposed skin surface (0.256 cm2). […]

Question: Water was tested. Which “Flux (lidocaine transdermal flux through excised pig ear skin)” value (dorsal pig ear skin) did it give?
Answer: 70 +/− 10 μg/cm^2

Question: What about the “Pig ear skin Flux (lidocaine steady-state transdermal flux)” value (dorsal pig ear skin) of the same substance?
Answer: 110 +/− 10 μg/hr-cm^2

Question: And the “Pig ear skin Lidocaine in skin” value (dorsal pig ear skin)?
Answer: 6800 ± 400 µg/mL

Question: What about the Pig skin permeability (dorsal pig ear skin) of the same substance?
Answer: 160 +/− 20 μm/hr

Question: And the “MatTek Flux (lidocaine steady-state transdermal flux)” value [1]?
Answer: 320 +/− 20 μg/hr-cm^2

Question: What does the source list for Pentanol?
Answer: Pig ear skin Flux (lidocaine steady-state transdermal flux) (dorsal pig ear skin): 130 +/− 20 μg/hr-cm^2; Pig ear skin Lidocaine in skin (dorsal pig ear skin): 5800 ± 200 µg/mL; Pig skin permeability (dorsal pig ear skin): 220 +/− 20 μm/hr; MatTek Flux (lidocaine steady-state transdermal flux) [1]: 160 +/− 10 μg/hr-cm^2
